Reference: paper PMC7766220, “Design, Synthesis and Comprehensive Investigations of Pyrrolo[3,4-d]pyridazinone-Based 1,3,4-Oxadiazole as New Class of Selective COX-2 Inhibitors” (International Journal of Molecular Sciences, 2020)

Assays:
COX-2 = biological target: T1, COX-2 (Homo sapiens, UniProt P35354); experiment: colorimetric COX peroxidase assay, […] nm (Cayman […]); type: biochemical; details: read-out: Cyclooxygenase Inhibition Assay IC50 [μM] / COX-2
T1 construct: gene PTGS2; docking used 4M11
T1 sequence (P35354 18-604): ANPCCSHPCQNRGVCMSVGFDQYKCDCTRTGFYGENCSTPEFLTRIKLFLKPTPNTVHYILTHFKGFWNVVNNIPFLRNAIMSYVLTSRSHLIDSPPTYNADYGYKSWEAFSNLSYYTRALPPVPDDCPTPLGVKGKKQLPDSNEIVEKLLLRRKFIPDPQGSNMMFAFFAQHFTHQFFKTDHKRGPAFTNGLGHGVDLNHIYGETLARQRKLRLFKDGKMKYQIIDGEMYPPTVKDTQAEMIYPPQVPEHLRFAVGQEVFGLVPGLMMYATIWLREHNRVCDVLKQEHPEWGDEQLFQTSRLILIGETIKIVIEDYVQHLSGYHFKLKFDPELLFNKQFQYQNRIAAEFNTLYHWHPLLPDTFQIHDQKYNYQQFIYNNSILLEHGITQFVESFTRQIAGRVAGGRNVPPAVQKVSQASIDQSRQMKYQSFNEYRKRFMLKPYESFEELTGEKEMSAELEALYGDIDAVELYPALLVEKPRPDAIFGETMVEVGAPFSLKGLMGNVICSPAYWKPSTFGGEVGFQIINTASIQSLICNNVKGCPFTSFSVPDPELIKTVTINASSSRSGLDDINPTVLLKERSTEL

[1] = biological target: T2, Bovine Serum Albumin (BSA) (Bos taurus, UniProt P02769); experiment: intrinsic fluorescence quenching, excitation […] nm; type: binding; details: 294 K, pH 7.4, no site marker, double-log
T2 construct: gene ALB
T2 sequence (P02769 25-607): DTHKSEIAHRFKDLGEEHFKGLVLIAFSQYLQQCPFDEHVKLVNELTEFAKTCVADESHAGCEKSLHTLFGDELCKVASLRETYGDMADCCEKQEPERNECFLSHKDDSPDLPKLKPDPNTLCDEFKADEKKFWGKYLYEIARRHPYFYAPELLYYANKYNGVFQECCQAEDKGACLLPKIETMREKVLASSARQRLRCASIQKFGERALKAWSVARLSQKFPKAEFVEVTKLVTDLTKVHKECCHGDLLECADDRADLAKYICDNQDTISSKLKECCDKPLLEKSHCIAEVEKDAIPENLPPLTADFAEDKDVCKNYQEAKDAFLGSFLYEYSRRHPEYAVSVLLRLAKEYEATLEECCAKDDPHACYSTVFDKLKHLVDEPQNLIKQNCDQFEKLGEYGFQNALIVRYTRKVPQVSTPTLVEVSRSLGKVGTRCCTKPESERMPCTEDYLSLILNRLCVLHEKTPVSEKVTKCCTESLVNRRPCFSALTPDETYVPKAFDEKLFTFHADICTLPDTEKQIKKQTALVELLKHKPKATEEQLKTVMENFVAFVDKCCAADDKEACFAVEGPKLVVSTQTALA

[2] = unreliable (Table 5 rows of 5a and 5b are identical, likely a copying error)

For `Cc1c2c(OCc3nnc(SCC(=O)N4CCN(c5ccccc5)CC4)o3)nn(C)c(=O)c2c(C)n1-c1ccccc1` [5a, 3,5,7-trimethyl-1-[[2-[2-oxo-2-(4-phenylpiperazin-1-yl)ethyl]sulfanyl-1,3,4-oxadiazol-5-yl]methoxy]-6-phenyl-pyrrolo[3,4-d]pyridazin-4-one], the IC50 (COX-2) was 659 µM and the “Binding / Kb × 10^4 [dm^3.mol^-1]” value [1, 2] was 12.30 × 10^4 dm^3·mol^−1.

`CCCCn1c(C)c2c(OCc3nnc(SCC(=O)N4CCN(c5ncccn5)CC4)o3)nn(C)c(=O)c2c1C` [6b, 6-butyl-3,5,7-trimethyl-1-[[2-[2-oxo-2-(4-pyrimidin-2-ylpiperazin-1-yl)ethyl]sulfanyl-1,3,4-oxadiazol-5-yl]methoxy]pyrrolo[3,4-d]pyridazin-4-one] was tested, and the IC50 (COX-2) was 371 µM and the “Binding / Kb × 10^4 [dm^3.mol^-1]” value [1] was 8.51 × 10^4 dm^3·mol^−1.

For `Cc1c2c(OCc3nnc(SCC(=O)N4CCN(c5ncccn5)CC4)o3)nn(C)c(=O)c2c(C)n1-c1ccccc1` [6a, 3,5,7-trimethyl-1-[[2-[2-oxo-2-(4-pyrimidin-2-ylpiperazin-1-yl)ethyl]sulfanyl-1,3,4-oxadiazol-5-yl]methoxy]-6-phenyl-pyrrolo[3,4-d]pyridazin-4-one], the IC50 (COX-2) was 160 µM and the “Binding / Kb × 10^4 [dm^3.mol^-1]” value [1] was 7.24 × 10^4 dm^3·mol^−1.

With `CCCCn1c(C)c2c(OCc3nnc(SCC(=O)N4CCN(c5ccccc5)CC4)o3)nn(C)c(=O)c2c1C` [5b, 6-butyl-3,5,7-trimethyl-1-[[2-[2-oxo-2-(4-phenylpiperazin-1-yl)ethyl]sulfanyl-1,3,4-oxadiazol-5-yl]methoxy]pyrrolo[3,4-d]pyridazin-4-one] the IC50 (COX-2) was 257 µM and the “Binding / Kb × 10^4 [dm^3.mol^-1]” value [1, 2] was 12.30 × 10^4 dm^3·mol^−1.
